Data from ChEMBL document CHEMBL3885881, “DrugMatrix”.

Species on record: Rattus norvegicus
Assay: DrugMatrix - Regimen: Daily Repeat
Assay type: toxicity, organism-based, Sprague-Dawley
Parameters: regimen Daily Repeat, gender Male, age 6-8 weeks
Details: in vivo, po, route oral GAVAGE, vehicle .5 % CMC; for URIC ACID / ALANINE AMINOTRANSFERASE / ALBUMIN / ALKALINE PHOSPHATASE / ASPARTATE AMINOTRANSFERASE / BLOOD UREA NITROGEN / CARBON DIOXIDE / CHLORIDE / CHOLESTEROL / CREATINE PHOSPHOKINASE / CREATININE / GLUCOSE / LACTATE DEHYDROGENASE / LIPASE / PHOSPHORUS / POTASSIUM / SODIUM / TOTAL BILIRUBIN / TOTAL PROTEIN: tissue Plasma; for BASOPHIL / EOSINOPHIL / ERYTHROCYTE COUNT / HEMATOCRIT / HEMOGLOBIN / LEUKOCYTE COUNT / LYMPHOCYTE / MEAN CORPUSCULAR HEMOGLOBIN / MEAN CORPUSCULAR HEMOGLOBIN CONCENTRATION / MEAN CORPUSCULAR VOLUME / MONOCYTE / NEUTROPHIL / PLATELET COUNT: tissue Blood
[1] = 82 mg/kg, 72 h, dose level High, time 3 day
[2] = 82 mg/kg, 120 h, dose level High, time 5 day
[3] = 82 mg/kg, […], dose level High, time 14 day

With `CCOP(=S)(OCC)Oc1nc(Cl)c(Cl)cc1Cl` [CHLORPYRIFOS] the “URIC ACID” value (0 mg/kg, […], dose level Control, time 14 day) was 1.78 mg/dL, the BASOPHIL [1] was 0.9% and the EOSINOPHIL [1] was 0.43%. For the same compound, the “ERYTHROCYTE COUNT” value [1] was 6.87 x10E6/uL, the HEMATOCRIT [1] was 44.5% and the HEMOGLOBIN [1] was 14.33 G/DL. The “LEUKOCYTE COUNT” value [1] was 11.45 x10E3/uL, the LYMPHOCYTE [1] was 88.3% and the “MEAN CORPUSCULAR HEMOGLOBIN” value [1] was 20.9 pg. For the same compound, the “MEAN CORPUSCULAR HEMOGLOBIN CONCENTRATION” value [1] was 32.27 G/DL, the “MEAN CORPUSCULAR VOLUME” value [1] was 64.87 fL and the MONOCYTE [1] was 1.27%. The NEUTROPHIL [1] was 7.87%, the “PLATELET COUNT” value [1] was 1233 x10E3/uL and the “ALANINE AMINOTRANSFERASE” value [1] was 42 u/L. For the same compound, the ALBUMIN [1] was 4.03 G/DL, the “ALKALINE PHOSPHATASE” value [1] was 285.67 u/L and the “ASPARTATE AMINOTRANSFERASE” value [1] was 78.33 u/L. For the same compound, the “BLOOD UREA NITROGEN” value [1] was 15.33 mg/dL, the “CARBON DIOXIDE” value [1] was 30.33 mmol/L and the CHLORIDE [1] was 103.67 MEQ/L. For the same compound, the CHOLESTEROL [1] was 47 mg/dL, the “CREATINE PHOSPHOKINASE” value [1] was 263.33 u/L and the CREATININE [1] was 0.5 mg/dL. For the same compound, the GLUCOSE [1] was 170 mg/dL, the “LACTATE DEHYDROGENASE” value [1] was 57.67 u/L and the LIPASE [1] was 11 u/L. For the same compound, the PHOSPHORUS [1] was 13.43 mg/dL, the POTASSIUM [1] was 7.33 MEQ/L and the SODIUM [1] was 146 MEQ/L. The “TOTAL BILIRUBIN” value [1] was 0.37 mg/dL, the “TOTAL PROTEIN” value [1] was 5.93 G/DL and the “URIC ACID” value [1] was 1.53 mg/dL. The BASOPHIL [2] was 0.33%, the EOSINOPHIL [2] was 0.5% and the “ERYTHROCYTE COUNT” value [2] was 7.39 x10E6/uL. The HEMATOCRIT [2] was 47.37%, the HEMOGLOBIN [2] was 15.03 G/DL and the “LEUKOCYTE COUNT” value [2] was 10.09 x10E3/uL. For the same compound, the LYMPHOCYTE [2] was 72.77%, the “MEAN CORPUSCULAR HEMOGLOBIN” value [2] was 20.37 pg and the “MEAN CORPUSCULAR HEMOGLOBIN CONCENTRATION” value [2] was 31.73 G/DL. The “MEAN CORPUSCULAR VOLUME” value [2] was 64.2 fL, the MONOCYTE [2] was 4.53% and the NEUTROPHIL [2] was 20.93%. The “PLATELET COUNT” value [2] was 1284.67 x10E3/uL, the “ALANINE AMINOTRANSFERASE” value [2] was 55.33 u/L and the ALBUMIN [2] was 3.9 G/DL. For the same compound, the “ALKALINE PHOSPHATASE” value [2] was 305.67 u/L, the “ASPARTATE AMINOTRANSFERASE” value [2] was 236.67 u/L and the “BLOOD UREA NITROGEN” value [2] was 13 mg/dL. For the same compound, the “CARBON DIOXIDE” value [2] was 28.33 mmol/L, the CHLORIDE [2] was 103.67 MEQ/L and the CHOLESTEROL [2] was 44.67 mg/dL. For the same compound, the “CREATINE PHOSPHOKINASE” value [2] was 186.67 u/L, the CREATININE [2] was 0.33 mg/dL and the GLUCOSE [2] was 139.33 mg/dL. For the same compound, the “LACTATE DEHYDROGENASE” value [2] was 62.67 u/L, the LIPASE [2] was 8 u/L and the PHOSPHORUS [2] was 12.8 mg/dL. For the same compound, the POTASSIUM [2] was 6 MEQ/L, the SODIUM [2] was 148 MEQ/L and the “TOTAL BILIRUBIN” value [2] was 0.27 mg/dL. The “TOTAL PROTEIN” value [2] was 6 G/DL, the “URIC ACID” value [2] was 1.63 mg/dL and the BASOPHIL [3] was 0.37%. The EOSINOPHIL [3] was 0.67%, the “ERYTHROCYTE COUNT” value [3] was 7.6 x10E6/uL and the HEMATOCRIT [3] was 45.9%. The HEMOGLOBIN [3] was 15.3 G/DL, the “LEUKOCYTE COUNT” value [3] was 16.12 x10E3/uL and the LYMPHOCYTE [3] was 84.43%. For the same compound, the “MEAN CORPUSCULAR HEMOGLOBIN” value [3] was 20.2 pg, the “MEAN CORPUSCULAR HEMOGLOBIN CONCENTRATION” value [3] was 33.37 G/DL and the “MEAN CORPUSCULAR VOLUME” value [3] was 60.43 fL. The MONOCYTE [3] was 1.7%, the NEUTROPHIL [3] was 11.33% and the “PLATELET COUNT” value [3] was 1183 x10E3/uL. The “ALANINE AMINOTRANSFERASE” value [3] was 46 u/L, the ALBUMIN [3] was 4.3 G/DL and the “ALKALINE PHOSPHATASE” value [3] was 329.67 u/L. The “ASPARTATE AMINOTRANSFERASE” value [3] was 114 u/L, the “BLOOD UREA NITROGEN” value [3] was 16.33 mg/dL and the “CARBON DIOXIDE” value [3] was 26.67 mmol/L. For the same compound, the CHLORIDE [3] was 101 MEQ/L, the CHOLESTEROL [3] was 72 mg/dL and the “CREATINE PHOSPHOKINASE” value [3] was 262 u/L. The CREATININE [3] was 0.43 mg/dL, the GLUCOSE [3] was 144 mg/dL and the “LACTATE DEHYDROGENASE” value [3] was 145.67 u/L. It also gave an LIPASE [3] of 9 u/L, a PHOSPHORUS [3] of 10.07 mg/dL and a POTASSIUM [3] of 6.2 MEQ/L. For the same compound, the SODIUM [3] was 149 MEQ/L, the “TOTAL BILIRUBIN” value [3] was 0.4 mg/dL and the “URIC ACID” value [3] was 1.8 mg/dL.
